Measurements as given in patent US20220274938A1, “5-[(1S)-1-(4-BROMOPHENOXY)ETHYL]-2H-TETRAZOLE DERIVATIVES AND RELATED COMPOUNDS AS CLC-1 ION CHANNEL INHIBITORS FOR TREATING NEUROMUSCULAR DISORDERS” (NMD PHARMA A/S, priority 2019, published 2022).

Molecular target: T1, CIC-1 ion channel (Rattus norvegicus, UniProt P35524)
T1 construct: CIC-1 channels in native tissue of rat skeletal muscle fibres; from tissue; host or cells: whole soleus muscle of 12-14 week old Wistar rats
T1 sequence (P35524 1-994): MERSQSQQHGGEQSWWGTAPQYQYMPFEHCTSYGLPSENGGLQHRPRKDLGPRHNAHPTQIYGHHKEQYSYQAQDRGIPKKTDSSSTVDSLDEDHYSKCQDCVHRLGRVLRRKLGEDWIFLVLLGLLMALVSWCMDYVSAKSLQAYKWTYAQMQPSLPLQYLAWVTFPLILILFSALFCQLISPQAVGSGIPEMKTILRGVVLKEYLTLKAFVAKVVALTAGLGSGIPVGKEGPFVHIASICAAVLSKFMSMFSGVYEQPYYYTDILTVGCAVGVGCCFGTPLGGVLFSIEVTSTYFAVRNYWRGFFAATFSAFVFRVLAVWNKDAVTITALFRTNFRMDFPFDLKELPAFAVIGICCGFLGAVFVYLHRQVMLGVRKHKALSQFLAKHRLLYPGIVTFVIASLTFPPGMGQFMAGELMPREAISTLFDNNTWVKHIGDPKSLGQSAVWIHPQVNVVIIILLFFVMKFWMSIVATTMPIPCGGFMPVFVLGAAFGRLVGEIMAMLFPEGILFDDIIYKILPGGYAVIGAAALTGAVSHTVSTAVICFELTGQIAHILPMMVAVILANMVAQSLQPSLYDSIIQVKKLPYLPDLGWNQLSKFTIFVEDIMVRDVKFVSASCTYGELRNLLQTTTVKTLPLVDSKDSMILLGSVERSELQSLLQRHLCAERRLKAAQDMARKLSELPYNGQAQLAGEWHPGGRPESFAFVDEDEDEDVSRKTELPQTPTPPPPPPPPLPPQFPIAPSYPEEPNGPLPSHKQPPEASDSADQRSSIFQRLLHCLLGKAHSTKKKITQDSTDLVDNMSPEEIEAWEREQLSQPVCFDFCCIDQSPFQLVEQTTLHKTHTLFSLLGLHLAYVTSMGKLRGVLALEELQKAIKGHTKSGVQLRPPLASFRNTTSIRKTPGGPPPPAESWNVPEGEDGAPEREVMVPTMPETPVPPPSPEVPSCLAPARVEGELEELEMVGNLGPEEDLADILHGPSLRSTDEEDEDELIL
Assay: Electrophysiological measurement (Gm, three micro-electrodes) of compound inhibition of CIC-1 in rat soleus muscle fibres
Assay type: cell-based
Settings: approx. 30° C., four increasing compound concentrations, read-out: EC50 (inhibition of CIC-1 ion channel, reduction of Gm)
Excerpt: FIG. 1. […] Please note that the drawing illustrates only the impaled fibre although it is part of an intact muscle that contains many such fibres. All electrodes recorded the membrane potential of the fibre and the two peripheral electrodes were used to inject current (−30 nA, 50 ms). The electrodes were inserted with known inter-electrode distances (X1, X2 and X3). After insertion, current was passed first via the V1 electrode and then via the V3 electrode. The resulting deflections in the membrane voltage were measured by the other electrodes. The steady state deflections in membrane potential were measured and divided by the magnitude of the injected current (−30 nA) to obtain transfer resistances. These were next plotted against inter-electrode distances, and fitted to an exponential function (Panel B), from which Gm could be calculated using linear cable theory. The approach described in panel A and B, was repeated for several muscle fibres in the muscle during exposure at increasing concentrations of compound E-8, with approx. 10 fibres at each concentration. Average Gm at each concentration was plotted as a function of compound concentration in panel C, and fitted to a 4-parameter sigmoidal function from which the EC50 value for the compound was obtained (dashed line)
Apparent CIC-1 affinity was reported by the concentration of compound at which 50% of the compound's full inhibition of CIC-1 was observed (EC50).
CIC-1 Cl^− ion channels generate around 80% of the total membrane conductance (Gm) in resting skeletal muscle fibres of most animals including rat and human (Bretag, A H. Muscle chloride channels. Physiological Reviews, 1987, 67, 618-724). […] CIC-1 inhibition would in such recordings be reflected by a reduction of Gm.
Experimentally, Gm was measured in individual fibres of whole rat soleus muscles using a three micro-electrodes technique described in this example and in full detail elsewhere (Riisager et al., Determination of cable parameters in skeletal muscle fibres during repetitive firing of action potentials. Journal of Physiology, 2014, 592, 4417-4429). Briefly, intact rat soleus muscles were dissected out from 12-14 week old Wistar rats and placed in an experimental chamber that was perfused with a standard Krebs Ringer solution containing 122 mM NaCl, 25 mM NaHCO3, 2.8 mM KCl, 1.2 mM KH2PO4, 1.2 mM MgSO4, 1.3 mM CaCl2, 5.0 mM D-glucose. During experiments, the solution was kept at approx. 30° C. and continuously equilibrated with a mixture of 95% O2 and 5% CO2, pH˜7.4. The experimental chamber was placed in Nikon upright microscope that was used to visualize individual muscle fibres and the three electrodes (glass pipettes filled with 2 M potassium citrate). For Gm measurements, the electrodes were inserted into the same fibre with known inter-electrode distances of 0.35-0.5 mm (V1-V2, X1) and 1.1-1.5 mm (V1-V3, X3) (FIG. 1A). The membrane potential of the impaled muscle fibre was recorded by all electrodes. Two of the electrodes were furthermore used to inject 50 ms current pulses of −30 nA. […] The steady state voltage deflection at each distance was divided by the magnitude of current injected (−30 nA) and the resulting transfer resistances were plotted against inter-electrode distance and the data was fitted to a mono-exponential function from which Gm could be calculated using linear cable theory (FIG. 1B).
To establish a dose response relationship, Gm was first determined in 10 muscle fibres in the absence of compound and then at four increasing compound concentrations with Gm determinations in 5-10 fibres at each concentration. The average Gm values at each concentration were plotted against compound concentration and the data was fitted to sigmoidal function to obtain an EC50 value (FIG. 1C).

Row | SMILES | EC50
1 | C[C@H](Oc1ccc(Cl)cc1)C(=O)NOC1CCC1 [Compound C-80, (2S)-2-(4-chlorophenoxy)-N-cyclobutoxypropanamide] | 2.6 µM
2 | C[C@H](Oc1ccc(Br)cc1F)c1nn[nH]n1 [Compound E-8, 5-[(1S)-1-(4-bromo-2-fluorophenoxy)ethyl]-2H-1,2,3,4-tetrazole] | 6.6 µM
